The values that follow come from patent US20250195530A1, “POLQ INHIBITORS” (ASTRAZENECA AB, priority 2022, published 2025).

The test system of the first test is DLD-1 BRCA2−/− cells. The test is described as follows: Homologous recombination synthetic lethal inhibition of proliferation, DLD-1 BRCA2-/- (Cell Titre Glo 3D). It counts as cell-based. Conditions: Homo sapiens, DLD-1, 288 h, DLD-1 BRCA2−/− cells, 12 days; read-out: POLQ PD Prolif Lumin BRCA2 −/− mean pIC50 (converted). A digest of the protocol: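 DLD-1 BRCA2−/− and parental DLD-1 cells exposed to 10-point dose range (10 μM to 0.51 nM, 3-fold) in RPMI/10% FBS at 37 °C, with medium and compound replenished on day 6. Viability by Cell Titre Glo 3D luminescence at day 7 (DLD-1) or day 12 (BRCA2−/−); IC50 as concentration halving maximum signal.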
As for `CC1(Oc2ncnc3c2nc(-c2ccc(OCCN4CCNCC4)cc2Cl)n3CCc2ccncc2)CC1` [Example L1, 8-(2-chloro-4-(2-(piperazin-1-yl)ethoxy)phenyl)-6-(1-methylcyclopropoxy)-9-(2-(pyridin-4-yl)ethyl)-9H-purine], the IC50 was greater than 10000 nM.

The same test, now with this note: Homo sapiens, DLD-1, DLD-1 BRCA2-/- proliferation; column head only partly shown; read-out: POLQ PD Prolif Lumin (converted).
In the case of `CC(CCOc1ccc(-c2nc3c(OC4(C)CC4)ncnc3n2Cc2ccc(F)c(Cl)c2)c(Cl)c1)C(=O)O` (racemic) [Example T269, 4-(3-chloro-4-(9-(3-chloro-4-fluorobenzyl)-6-(1-methylcyclopropoxy)-9H-purin-8-yl)phenoxy)-2-methylbutanoic acid], the IC50 was 1260 nM.
Still for that read-out and setting: next, `C[C@H](CCOc1cccc(-c2nc3c(OC4(C)CC4)ncnc3n2Cc2cccc(Cl)c2)c1Cl)C(=O)O` [Example T297, (R)-4-(2-chloro-3-(9-(3-chlorobenzyl)-6-(1-methylcyclopropoxy)-9H-purin-8-yl)phenoxy)-2-methylbutanoic acid]: 63.1 nM.

Staying with this test, now noted: Homo sapiens, DLD-1, DLD-1 BRCA2 −/− cells; mean; read-out: POLQ PD Prolif Lumin BRCA2 −/− mean pIC50 (converted).
On to `Cc1ncccc1Cn1c(-c2ccc(CC(N)=O)cc2Cl)nc2c(OC3(C)CC3)ncnc21` [Example T60, 2-(3-chloro-4-(6-(1-methylcyclopropoxy)-9-((2-methylpyridin-3-yl)methyl)-9H-purin-8-yl)phenyl)acetamide], for which the IC50 is 10000 nM.
On to `Cc1ccnc(Cn2c(-c3ccc(OC4COC4)cc3Cl)nc3c(OC4(C)CC4)ncnc32)c1` [Example T103, 8-(2-chloro-4-(oxetan-3-yloxy)phenyl)-6-(1-methylcyclopropoxy)-9-((4-methylpyridin-2-yl)methyl)-9H-purine], for which the IC50 is 158 nM.

Still in this test, the particulars now being: Homo sapiens, DLD-1, DLD-1 BRCA2 −/−, mean; read-out: POLQ PD Prolif Lumin BRCA2 −/− mean pIC50 (converted).
In the case of `CC1(Oc2ncnc3c2nc(-c2cccc(OCCC(=O)O)c2Cl)n3Cc2cc(Cl)ccc2F)CC1` [Example U32, 3-(2-chloro-3-(9-(5-chloro-2-fluorobenzyl)-6-(1-methylcyclopropoxy)-9H-purin-8-yl)phenoxy)propanoic acid], the IC50 was 39.8 nM.

Staying with this test, now noted: Homo sapiens, DLD-1, first proliferation column (c5), taken as DLD-1 BRCA2-/-; read-out: POLQ PD Prolif Lumin (converted).
Regarding `CC1(Oc2ncnc3c2nc(-c2ccc(OCC[C@@](C)(O)C(=O)O)cc2Cl)n3Cc2cccc(Cl)c2)CC1` [Example T301, (R)-4-(3-chloro-4-(9-(3-chlorobenzyl)-6-(1-methylcyclopropoxy)-9H-purin-8-yl)phenoxy)-2-hydroxy-2-methylbutanoic acid], the IC50 was 2510 nM.
On the same count and under the same terms, next, `Cc1ccnc(Cn2c(-c3ccc(OCC(=O)N4CCC4)cc3Cl)nc3c(OC4(C)CC4)ncnc32)c1` [Example T312, 1-(azetidin-1-yl)-2-(3-chloro-4-(6-(1-methylcyclopropoxy)-9-((4-methylpyridin-2-yl)methyl)-9H-purin-8-yl)phenoxy)ethan-1-one]: 200 nM.
Regarding `Cc1ccnc(Cn2c(-c3ccc(C(=O)N4CCOCC4)cc3Cl)nc3c(OC4(C)CC4)ncnc32)c1` [Example T315, (3-chloro-4-(6-(1-methylcyclopropoxy)-9-((4-methylpyridin-2-yl)methyl)-9H-purin-8-yl)phenyl)(morpholino)methanone], the IC50 was 1580 nM.
With `Cc1ccnc(Cn2c(-c3ccc(OCCNC(=O)[C@@H](C)O)cc3Cl)nc3c(OC4(C)CC4)ncnc32)c1` [Example T375, (R)-N-(2-(3-chloro-4-(6-(1-methylcyclopropoxy)-9-((4-methylpyridin-2-yl)methyl)-9H-purin-8-yl)phenoxy)ethyl)-2-hydroxypropanamide], the IC50 is 251 nM.
On the same count and under the same terms, next, `Cc1ccnc(Cn2c(-c3ccc(CCNC(=O)[C@@H](C)O)cc3Cl)nc3c(OC4(C)CC4)ncnc32)c1` [Example T368, (R)-N-(3-chloro-4-(6-(1-methylcyclopropoxy)-9-((4-methylpyridin-2-yl)methyl)-9H-purin-8-yl)phenethyl)-2-hydroxypropanamide]: 631 nM.

Still in this test, the particulars now being: Homo sapiens, DLD-1, first proliferation column (c5); DLD-1 BRCA2-/-; read-out: POLQ PD Prolif Lumin (converted).
As to `Cc1ccnc(Cn2c(-c3ccc(N4CCC5NCCC54)cc3Cl)nc3c(OC4(C)CC4)ncnc32)c1` (centres unmarked) [Example T492, 8-(2-chloro-4-(hexahydropyrrolo[3,2-b]pyrrol-1(2H)-yl)phenyl)-6-(1-methylcyclopropoxy)-9-((4-methylpyridin-2-yl)methyl)-9H-purine], the IC50 was 398 nM.
Take `CC1(Oc2ncnc3c2nc(-c2ccc(OCCC(=O)NS(C)(=O)=O)cc2Cl)n3Cc2cccc(Cl)c2)CC1` [Example T189, 3-(3-chloro-4-(9-(3-chlorobenzyl)-6-(1-methylcyclopropoxy)-9H-purin-8-yl)phenoxy)-N-(methylsulfonyl)propanamide]: the IC50 is 3980 nM.
Same read-out and setting: next, `Cc1ccc(C)c(Cn2c(-c3ccc(OCCC(C)C(=O)O)cc3Cl)nc3c(OC4(C)CC4)ncnc32)c1` (racemic) [Example T569, 4-(3-chloro-4-(9-(2,5-dimethylbenzyl)-6-(1-methylcyclopropoxy)-9H-purin-8-yl)phenoxy)-2-methylbutanoic acid]: 631 nM; `Cc1ccnc(Cn2c(-c3ccc(C4CCC(=O)N4)cc3Cl)nc3c(OC4(C)CC4)ncnc32)c1` (single isomer, unassigned) [Example T172, 5-(3-chloro-4-(6-(1-methylcyclopropoxy)-9-((4-methylpyridin-2-yl)methyl)-9H-purin-8-yl)phenyl)pyrrolidin-2-one]: 398 nM.
Turning to `Cc1ccnc(Cn2c(-c3ccc(CC(=O)N4C5CNCC4C5)cc3Cl)nc3c(OC4(C)CC4)ncnc32)c1` [Example T557, 1-(3,6-diazabicyclo[3.1.1]heptan-6-yl)-2-(3-chloro-4-(6-(1-methylcyclopropoxy)-9-((4-methylpyridin-2-yl)methyl)-9H-purin-8-yl)phenyl)ethan-1-one], the IC50 is 6310 nM.
Still for that read-out and setting: next, `CNC(=O)Cc1ccc(-c2nc3c(OC4(C)CC4)ncnc3n2Cc2cc(C)ccn2)c(Cl)c1` [Example T113, 2-(3-chloro-4-(6-(1-methylcyclopropoxy)-9-((4-methylpyridin-2-yl)methyl)-9H-purin-8-yl)phenyl)-N-methylacetamide]: 316 nM.
The same measure, in the same setting: next, `Cc1ccnc(Cn2c(-c3ccc(OCC(=O)N4C[C@H]5C[C@@H](C4)O5)cc3Cl)nc3c(OC4(C)CC4)ncnc32)c1` [Example T550, rel-1-((1R,5S)-6-oxa-3-azabicyclo[3.1.1]heptan-3-yl)-2-(3-chloro-4-(6-(1-methylcyclopropoxy)-9-((4-methylpyridin-2-yl)methyl)-9H-purin-8-yl)phenoxy)ethan-1-one]: 316 nM.
For `Cc1ccnc(Cn2c(-c3ccc(NC(=O)N(C)C)cc3Cl)nc3c(OC4(C)CC4)ncnc32)c1` [Example T130, 3-(3-chloro-4-(6-(1-methylcyclopropoxy)-9-((4-methylpyridin-2-yl)methyl)-9H-purin-8-yl)phenyl)-1,1-dimethylurea], the IC50 was 501 nM.

Staying with this test, now noted: Homo sapiens, DLD-1, first proliferation column; DLD-1 BRCA2-/-; read-out: POLQ PD Prolif Lumin (converted).
Turning to `CC(C)(C)Oc1cccc2c1nc(-c1ccc(OCCN3CCNCC3)cc1Cl)n2Cc1cccc(Cl)c1` [Example T608, 4-(tert-butoxy)-2-(2-chloro-4-(2-(piperazin-1-yl)ethoxy)phenyl)-1-(3-chlorobenzyl)-1H-benzo[d]imidazole], the IC50 was 501 nM.
Consider `Cc1ccnc(Cn2c(-c3ccc(OCC(=O)N4CCC[C@@H]4CO)cc3Cl)nc3c(OC4(C)CC4)ncnc32)c1` [Example T579, (R)-2-(3-chloro-4-(6-(1-methylcyclopropoxy)-9-((4-methylpyridin-2-yl)methyl)-9H-purin-8-yl)phenoxy)-1-(2-(hydroxymethyl)pyrrolidin-1-yl)ethan-1-one], for which the IC50 was 501 nM.
The same measure, in the same setting: next, `Cc1ccnc(Cn2c(-c3ccc(OCC(=O)N4CCC[C@H]4CO)cc3Cl)nc3c(OC4(C)CC4)ncnc32)c1` [Example T576, (S)-2-(3-chloro-4-(6-(1-methylcyclopropoxy)-9-((4-methylpyridin-2-yl)methyl)-9H-purin-8-yl)phenoxy)-1-(2-(hydroxymethyl)pyrrolidin-1-yl)ethan-1-one]: 501 nM; `Cc1ccnc(Cn2c(-c3ccc(O[C@H]4CCN(C(=O)[C@@H](C)O)C4)cc3Cl)nc3c(OC4(C)CC4)ncnc32)c1` [Example T584, (R)-1-((S)-3-(3-chloro-4-(6-(1-methylcyclopropoxy)-9-((4-methylpyridin-2-yl)methyl)-9H-purin-8-yl)phenoxy)pyrrolidin-1-yl)-2-hydroxypropan-1-one]: 794 nM.

Still in this test, the particulars now being: Homo sapiens, DLD-1, proliferation, luminescence, taken as DLD-1 BRCA2-/-; read-out: POLQ PD Prolif Lumin (converted).
On to `Cc1ccnc(Cn2c(-c3ccc(OCC(=O)N(C)CCC#N)cc3Cl)nc3c(OC4(C)CC4)ncnc32)c1` [Example T430, 2-(3-chloro-4-(6-(1-methylcyclopropoxy)-9-((4-methylpyridin-2-yl)methyl)-9H-purin-8-yl)phenoxy)-N-(2-cyanoethyl)-N-methylacetamide], for which the IC50 was 501 nM.
Take `Cc1ccnc(Cn2c(-c3ccc(C(=O)N4CCC[C@H]4C#N)cc3Cl)nc3c(OC4(C)CC4)ncnc32)c1` [Example T404, (S)-1-(3-chloro-4-(6-(1-methylcyclopropoxy)-9-((4-methylpyridin-2-yl)methyl)-9H-purin-8-yl)benzoyl)pyrrolidine-2-carbonitrile]: the IC50 is 1260 nM.
With `Cc1ccnc(Cn2c(-c3ccc(C(=O)N4CCC[C@H]4CO)cc3Cl)nc3c(OC4(C)CC4)ncnc32)c1` [Example T466, (S)-(3-chloro-4-(6-(1-methylcyclopropoxy)-9-((4-methylpyridin-2-yl)methyl)-9H-purin-8-yl)phenyl)(2-(hydroxymethyl)pyrrolidin-1-yl)methanone], the IC50 is 1000 nM.
